What was measured:
[1] = biological target: T1, FXR (Homo sapiens, UniProt Q96RI1); test: activity on nuclear receptor FXR
T1 sequence (Q96RI1 1-486): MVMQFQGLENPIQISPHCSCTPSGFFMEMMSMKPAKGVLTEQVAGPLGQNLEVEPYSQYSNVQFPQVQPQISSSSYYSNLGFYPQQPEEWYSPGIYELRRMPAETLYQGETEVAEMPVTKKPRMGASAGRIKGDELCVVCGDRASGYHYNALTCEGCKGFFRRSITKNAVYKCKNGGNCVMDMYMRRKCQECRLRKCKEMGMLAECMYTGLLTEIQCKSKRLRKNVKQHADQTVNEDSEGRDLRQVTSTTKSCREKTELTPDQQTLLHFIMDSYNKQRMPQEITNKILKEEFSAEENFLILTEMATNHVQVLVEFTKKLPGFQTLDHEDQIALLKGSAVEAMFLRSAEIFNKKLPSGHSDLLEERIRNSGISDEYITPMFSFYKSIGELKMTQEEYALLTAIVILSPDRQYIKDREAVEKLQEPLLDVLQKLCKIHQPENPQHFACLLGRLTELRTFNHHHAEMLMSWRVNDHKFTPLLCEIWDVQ

[2] = test system: inbred 129S1 Col4a3−/− mice; test: Mouse Alport model of kidney fibrosis, Study 2; type: in vivo
Text: Mice with mutations in one of the collagen IV genes of glomerular basement membrane collagen, Collagen IV-α3/α4/α5, have defects in glomerular function with development of kidney fibrosis. These mice develop renal dysfunction and die prematurely of renal failure with specific timing dependent on the strain background upon which the mutation is present.
Generation of Col4a3^−/−mice was as described in Miner, J. H., and Sanes, J. R. (1996), J. Cell Biol. 135:1403-1413. Studies of Compound 1 efficacy in Alport models of kidney fibrosis were performed using mice on two different strain backgrounds. Study 1 used B 6129S1 F1 hybrid Alport mice that usually reach end stage renal disease (ESRD) at about 17 to 19 weeks. These were generated by crosses between C57BL6/J (B 6) and 129S1/Sv1mJ (129S1) Alport mice. Study 2 used inbred 129S1 Col4a3^−/− mice, which usually reach ESRD at about 11 to 13 weeks. […]
Urine and blood samples were collected at the time points of 12, 15, and 17-weeks of age for B6129S1 hybrid Col4a3^+/−, −/− mice and at 8 and 10-weeks of age for inbred 129S1 Col4a3^−/− mice. Urinary protein concentration was determined by Bradford assay (Cat. 5000006, Bio-Rad) and comparison with bovine serum albumin standards. Urinary creatinine was measured by QuantiChrom™ Creatinine Assay Kit (Cat.DICT-500, BioAssay systems) and used to normalize the amount of urine. Blood urea nitrogen (BUN) levels were measured by QuantiChrom™ Urea Assay Kit (Cat.DUR2-100, BioAssay systems). Urine and blood samples were stored at −20° C. and −80° C. respectively after collection and subsequently analyzed.
For biochemistry, kidneys were collected from 15 and 17-week old B 6129S1 hybridCol4a3^+/−, −/− mice; and from 8 and 10-week old inbred 129S1 Col4a3^−/− mice. […] Protein concentration was measured by BCA assays (Cat. 23227, ThermoFisher). […]
All data are presented as mean±SEM. Statistical significance was determined by Oneway ANOVA with Dunnett's multiple comparison for more than three group comparison and Student's t test for two group comparison. […]

[3] = biological target: T2, LXRα (Homo sapiens, UniProt Q13133); test: activity on nuclear receptor LXRα
T2 sequence (Q13133 1-447): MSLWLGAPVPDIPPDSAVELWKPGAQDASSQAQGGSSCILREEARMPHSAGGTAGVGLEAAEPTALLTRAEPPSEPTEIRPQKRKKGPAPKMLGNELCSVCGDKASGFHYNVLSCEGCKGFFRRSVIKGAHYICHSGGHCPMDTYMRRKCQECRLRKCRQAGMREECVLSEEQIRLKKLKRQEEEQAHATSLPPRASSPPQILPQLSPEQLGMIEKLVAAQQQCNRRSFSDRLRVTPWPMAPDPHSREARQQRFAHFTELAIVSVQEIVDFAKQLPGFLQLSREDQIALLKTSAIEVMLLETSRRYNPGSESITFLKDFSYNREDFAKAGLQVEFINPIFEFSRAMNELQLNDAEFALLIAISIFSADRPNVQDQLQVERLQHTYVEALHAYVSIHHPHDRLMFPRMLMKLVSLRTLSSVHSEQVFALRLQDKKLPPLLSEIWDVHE

[4] = 3 or 10 mg/kg i.p. once a day, samples at 8 and 10-weeks of age, data not shown

## Cc1cc(OC/C=C(/c2ccc(F)cc2)c2ccc(C#CCN3CCOCC3)cc2)ccc1OCC(=O)O [Compound 1, (E)-[4-[3-(4-Fluorophenyl)-3-[4-[3-(morpholin-4-yl)propynyl]phenyl]allyloxy]-2-methyl-phenoxy]acetic acid]
[1]
  activity on FXR: did not show any
[2]; 3 or 10 mg/kg i.p. once a day from 4 to 10-weeks of age
  kidney dysfunction: did not attenuate
[2]; [4]
  BUN: did not result in any significant reduction
  proteinuria: did not result in any significant reduction
[3]
  activity on LXRα: did not show any

— patent US20220370467A1, “USING OF A PPAR-DELTA AGONIST IN THE TREATMENT OF KIDNEY DISEASE” (Reneo Pharmaceuticals, Inc., priority 2019, published 2022)
